Source: PubChem BioAssay AID1259411 (Chemical Carcinogenesis Research Information System (CCRIS), 2018)
Calls of active or inactive are those of the source. The rule behind the calls is not given here.

Test system: rodent carcinogenicity bioassays, tumor incidence
Assay: CCRIS carcinogenicity studies
How it was run: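 Archive of carcinogenicity, mutagenicity, tumor promotion and tumor inhibition results drawn from journals, NCI reports and other sources, expert-reviewed; covers 1985-2011 and is no longer updated.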

## Nc1ccc(Oc2ccc(N)cc2)cc1
Species: MOUSE, Strain/Sex: B6C3F1/FEMALE, Route: ORAL, Dose: 0, 0.015, 0.03, 0.08% IN DIET FOR 103 WK (STUDY DURATION: 104 WK), Dose: 0, 0.015, 0.03, 0.08% IN DIET FOR 103 WK (STUDY DURATION: 104 WK), Tumor Site: Type of Lesion: THYROID GLAND: FOLLICULAR ADENOMA, LIVER: ADENOMA, LIVER: HEPATOCELLULAR CARCINOMA, HARDERIAN GLAND: ADENOMA, Tumor Site: Type of Lesion: THYROID GLAND: FOLLICULAR ADENOMA, LIVER: ADENOMA, LIVER: HEPATOCELLULAR CARCINOMA, HARDERIAN GLAND: ADENOMA
  carcinogen call: active; positive
Species: MOUSE, Strain/Sex: B6C3F1/FEMALE, Route: ORAL, Dose: 0, 150, 300, 800 PPM IN DIET, Dose: 0, 150, 300, 800 PPM IN DIET, Tumor Site: Type of Lesion: LIVER: HEPATOCELLULAR ADENOMA OR CARCINOMA, THYROID GLAND: FOLLICULAR CELL ADENOMA, HARDERIAN GLAND: ADENOMA, NOS, Tumor Site: Type of Lesion: LIVER: HEPATOCELLULAR ADENOMA OR CARCINOMA, THYROID GLAND: FOLLICULAR CELL ADENOMA, HARDERIAN GLAND: ADENOMA, NOS
  carcinogen call: active; positive
Species: MOUSE, Strain/Sex: B6C3F1/MALE, Route: ORAL, Dose: 0, 0.015, 0.03, 0.08% IN DIET FOR 103 WK (STUDY DURATION: 104 WK), Dose: 0, 0.015, 0.03, 0.08% IN DIET FOR 103 WK (STUDY DURATION: 104 WK), Tumor Site: Type of Lesion: THYROID GLAND: FOLLICULAR HYPERPLASIA, HARDERIAN GLAND: ADENOMA
  carcinogen call: active; positive
Species: MOUSE, Strain/Sex: B6C3F1/MALE, Route: ORAL, Dose: 0, 150, 300, 800 PPM IN DIET, Dose: 0, 150, 300, 800 PPM IN DIET, Tumor Site: Type of Lesion: LIVER: HEPATOCELLULAR ADENOMA OR CARCINOMA, HARDERIAN GLAND: ADENOMA, NOS
  carcinogen call: active; positive
Species: RAT, Route: SUBCUTANEOUS, Tumor Site: Type of Lesion: LIVER
  carcinogen call: active; positive
Species: RAT, Strain/Sex: F344/FEMALE, Route: ORAL, Dose: 0, 0.02, 0.04, 0.05% IN DIET FOR 103 WK (STUDY DURATION: 104 WK), Dose: 0, 0.02, 0.04, 0.05% IN DIET FOR 103 WK (STUDY DURATION: 104 WK), Tumor Site: Type of Lesion: THYROID GLAND: FOLLICULAR CARCINOMA, THYROID GLAND: FOLLICULAR ADENOMA, LIVER: NEOPLASTIC NODULE, LIVER: HEPATOCELLULAR, Tumor Site: Type of Lesion: THYROID GLAND: FOLLICULAR CARCINOMA, THYROID GLAND: FOLLICULAR ADENOMA, LIVER: NEOPLASTIC NODULE, LIVER: HEPATOCELLULAR
  carcinogen call: active; positive
Species: RAT, Strain/Sex: F344/FEMALE, Route: ORAL, Dose: 0, 200, 400, 500 PPM IN DIET, Dose: 0, 200, 400, 500 PPM IN DIET, Tumor Site: Type of Lesion: LIVER: HEPATOCELLULAR CARCINOMA OR NEOPLASTIC NODULE, THYROID GLAND: FOLLICULAR CELL ADENOMA OR CARCINOMA
  carcinogen call: active; positive
Species: RAT, Strain/Sex: F344/MALE, Route: ORAL, Dose: 0, 0.02, 0.04, 0.05% IN DIET FOR 103 WK (STUDY DURATION: 104 WK), Dose: 0, 0.02, 0.04, 0.05% IN DIET FOR 103 WK (STUDY DURATION: 104 WK), Tumor Site: Type of Lesion: THYROID GLAND: FOLLICULAR CARCINOMA, THYROID GLAND: FOLLICULAR ADENOMA, LIVER: NEOPLASTIC NODULE, LIVER: HEPATOCELLULAR, Tumor Site: Type of Lesion: THYROID GLAND: FOLLICULAR CARCINOMA, THYROID GLAND: FOLLICULAR ADENOMA, LIVER: NEOPLASTIC NODULE, LIVER: HEPATOCELLULAR
  carcinogen call: active; positive
Species: RAT, Strain/Sex: F344/MALE, Route: ORAL, Dose: 0, 200, 400, 500 PPM IN DIET, Dose: 0, 200, 400, 500 PPM IN DIET, Tumor Site: Type of Lesion: LIVER: HEPATOCELLULAR CARCINOMA OR NEOPLASTIC NODULE, THYROID GLAND: FOLLICULAR CELL ADENOMA OR CARCINOMA
  carcinogen call: active; positive

## c1ccoc1
Species: MOUSE, Strain/Sex: B6C3F1/FEMALE, Route: GAVAGE, Dose: 0, 8, 15 MG/KG IN CORN OIL 5 D/WK FOR 104 WK (STUDY DURATION: 105 WK), Dose: 0, 8, 15 MG/KG IN CORN OIL 5 D/WK FOR 104 WK (STUDY DURATION: 105 WK), Tumor Site: Type of Lesion: ADRENAL MEDULLA: BENIGN PHEOCHROMOCYTOMA, LIVER: HEPATOCELLULAR ADENOMA, HEPATOCELLULAR CARCINOMA
  carcinogen call: active; positive
Species: MOUSE, Strain/Sex: B6C3F1/MALE, Route: GAVAGE, Dose: 0, 8, 15 MG/KG IN CORN OIL 5 D/WK FOR 104 WK (STUDY DURATION: 105 WK), Dose: 0, 8, 15 MG/KG IN CORN OIL 5 D/WK FOR 104 WK (STUDY DURATION: 105 WK), Tumor Site: Type of Lesion: ADRENAL MEDULLA: BENIGN PHEOCHROMOCYTOMA, LIVER: HEPATOCELLULAR ADENOMA, HEPATOCELLULAR CARCINOMA
  carcinogen call: active; positive
Species: MOUSE, Strain/Sex: B6C3F1/MALE, Route: INTRAPERITONEAL, Dose: 0, 200 MG/KG BW ONCE EACH ON POSTNATAL DAYS 3, 6, 9, 12, 15 AND 18 (STUDY DURATION: 95 WK), Tumor Site: Type of Lesion: LIVER: ADENOMA OR CARCINOMA
  carcinogen call: active; positive
Species: MOUSE, Strain/Sex: B6C3F1/MALE, Route: INTRAPERITONEAL, Dose: 0, 400 MG/KG BW ONCE ON POSTNATAL DAY 15 (STUDY DURATION: 95 WK)
  carcinogen call: inactive; negative
Species: RAT, Strain/Sex: B6C3F1/FEMALE, Route: GAVAGE, Dose: 0, 2, 4, 8 MG/KG IN CORN OIL 5 D/WK FOR 103 WK (STUDY DURATION: 104 WK), Dose: 0, 2, 4, 8 MG/KG IN CORN OIL 5 D/WK FOR 103 WK (STUDY DURATION: 104 WK), Tumor Site: Type of Lesion: LIVER: CHOLANGIOCARCINOMA, HEPATOCELLULAR ADENOMA OR CARCINOMA, HEMATOPOIETIC SYSTEM: MONONUCLEAR CELL LEUKEMIA
  carcinogen call: active; positive
Species: RAT, Strain/Sex: F344/MALE, Route: GAVAGE, Dose: 0, 2, 4, 8 MG/KG IN CORN OIL 5 D/WK FOR 103 WK (STUDY DURATION: 104 WK), Dose: 0, 2, 4, 8 MG/KG IN CORN OIL 5 D/WK FOR 103 WK (STUDY DURATION: 104 WK), Tumor Site: Type of Lesion: LIVER:CHOLANGIOCARCINOMA, HEPATOCELLULAR ADENOMA, HEPATOCELLULAR CARCINOMA, HEMATOPOIETIC SYSTEM: MONONUCLEAR CELL LEUKE
  carcinogen call: active; positive

## C=Cc1ccncc1
Species: MOUSE, Strain/Sex: STRAIN-A/FEMALE, Route: INTRAPERITONEAL, Dose: 0, 10 UMOL IN 0.1 ML OLIVE OIL 3/WK FOR 20 DOSES (TOTAL DOSE: 200 UMOL) (STUDY DURATION: 27 WK)
  carcinogen call: inactive; negative
